# According to paper PMC3517478 (BMC Neurology, 2012):
# Where a chain is given by its changes, count along the chain named.
# Key:
# [1] = biological target: T1, human α1R271K-GlyR expressed in HEK 293 cells (Homo sapiens, UniProt P23415, R299K); conditions: R271K
# T1 sequence (P23415 29-457 R299K): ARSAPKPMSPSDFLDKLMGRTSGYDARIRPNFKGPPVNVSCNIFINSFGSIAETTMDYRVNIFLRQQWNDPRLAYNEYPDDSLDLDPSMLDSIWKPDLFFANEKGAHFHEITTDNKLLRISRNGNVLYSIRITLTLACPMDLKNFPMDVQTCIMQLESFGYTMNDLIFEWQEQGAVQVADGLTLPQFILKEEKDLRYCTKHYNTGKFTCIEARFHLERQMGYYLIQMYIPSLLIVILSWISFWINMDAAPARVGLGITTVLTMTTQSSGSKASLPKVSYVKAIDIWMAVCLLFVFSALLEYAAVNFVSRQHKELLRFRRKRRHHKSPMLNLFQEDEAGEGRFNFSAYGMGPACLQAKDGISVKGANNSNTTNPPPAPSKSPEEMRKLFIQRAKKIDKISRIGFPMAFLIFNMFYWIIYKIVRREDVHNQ
# Source text: (§1) Human α1-, α1R271Q-, α1R271L-, α1R271K and α1S267I-GlyR subunits were transiently transfected into human embryonic kidney cells (HEK 293, ATCC, Manassas, USA). The wild type α1-GlyR -cDNA was cloned in pCIS2 (Invitrogen, San Diego, USA) vector and provided by Prof. Heinrich Betz (Max-Planck-Institut für Hirnforschung, Frankfurt am Main, Germany). For the plasmid cDNA of the mutated α1R271Q-, α1R271L-, α1R271K- and α1S267I-GlyR the eukaryotic expression vector pcDNA1amp (Invitrogen, San Diego, USA), under the control of cytomegalovirus promoter, was used. For site-directed mutagenesis, single stranded template cDNA was synthesized from M13 origin of replication and the mutations of arginine residue (R) at position 271 to glutamine (R271Q), leucine (R271L) or lysine (R271K) and mutation of serine residue (S) at position 267 to isoleucine (S267I) were generated using standard procedures. […] Wild type and mutated α1-GlyR subunits efficiently form homomeric receptors in heterologous expression systems.
# (§2) HEK 293 cells were cultured in medium containing HAMS’F-12 (Biochrom, Berlin, Germany), supplemented with 10% fetal bovine serum (FBS, Biochrom, Berlin, Germany), 100 U ml^–1 penicillin and 100μgml^–1 streptomycin (Gibco BRL, Life Technologies, Karlsruhe, Germany) at 37°C in a 5% CO2/ 95% air incubator. For transfection cells were suspended in a buffer containing 50mM K2HPO4 (Fluka BioChemika, Seelze, Germany), 20mMK-acetate (Sigma-Aldrich, Taufkirchen, Germany) and 25mM MgSO4 (Sigma-Aldrich, Taufkirchen, Germany) at pH 7.35. To visualize transfected cells, they were co-transfected with cDNA encoding for enhanced green fluorescent protein (EGFP) contained in the pEGFP-N1 expression vector (Clontech, Palo Alto, USA). The corresponding cDNA (5μg for the GlyR and 2.5μg for EGFP) was added to 400μl of the cell suspension and the mixture was rapidly transferred into the electroporation cuvette. For transfection we used an electroporation device by EquiBio (Kent, UK) and a 4mm aluminum electrode electroporation cuvette (Peqlab, Erlangen, Germany).
# (§3) The phenol derivative 4-chloropropofol ([…]) was provided as pure substance by Prof. Paul M. O’Neill (University of Liverpool, England), prepared as light-protected 1M stock solution in ethanol (EtOH, J.T.Baker, Griesheim, Germany) and stored in glass vessels at −20°C.
# (§4) Drug-containing vials were vigorously vortexed for 30min. Patch electrodes were filled with an intracellular solution of [mM] KCl 140, MgCl2 2, EGTA 11, HEPES 10, glucose 11, CaCl2 1 with pH 7.3, adjusted with 1 M KOH and a bath solution contained [mM] NaCl 162, KCl 5.31, NaHPO4 0.85, KH2PO4 0.22, HEPES 15, glucose 6.11, pH 7.4 adjusted with 1 M NaOH. Osmolarity of both solutions was set at 280–300 mOsmol.
# (§5) Whole-cell experiments were performed at a holding potential of −30 mV with a mean seal resistance of 1 GΩ. […] A fast liquid filament switch technique was used for the application of the agonist, presented in pulses of 2 s duration every 20 s. The liquid filament switch technique is able to exchange the solution passing an outside-out patch or small whole-cells within 1–2 ms. We calculated flow rate of background solution through the chamber with 3,4 ml/min corresponding to 4% of maximal pump rate. With regard to the chamber volume of 100 μl the exchange solution time within the chamber was assessed to approximately […], dependent on cell size accordingly. Piezo-switch and small diameter capillary (ID 0.15 mm) within the measurement chamber promoted the millisecond solution exchange. […] The induced current (I) by this saturating control solution was defined as Icontrol. […] The stability of the seal was controlled during the complete experiment via control of the seal resistance. A variation of 10-20% of the basic value was regarded as tolerable.
# [2] = biological target: T2, human α1S267I-GlyR expressed in HEK 293 cells (Homo sapiens, UniProt P23415, S295I); conditions: S267I
# T2 sequence (P23415 29-457 S295I): T1 sequence (P23415 29-457 R299K) with S267I, K271R
# Source text: as §1, §2, §3, §4, §5
# [3] = 10-90% of Imax, monoexponential fit
structure (smiles),measurement,setting,value
NCC(=O)O [glycine],Current amplitude [% of mean WT current amplitude] ± SEM,[1],32.0±18%
same,"nH ± SEM (Hill coefficient), glycine activation",[1],1.0±0.5
same,Rise time ± SEM,[1]; [3],14.9 ± 7.7 ms
same,Mean current amplitude ± SEM,[1]; saturating glycine 10 mM,526±97 pA
same,Current amplitude [% of mean WT current amplitude] ± SEM,[2],68.2±68%
same,"nH ± SEM (Hill coefficient), glycine activation",[2],1.1±0.2
same,Rise time ± SEM,[2]; [3],6.6 ± 2.5 ms
same,Mean current amplitude ± SEM,[2]; saturating glycine 1 mM,1122±765 pA
